For orientation: MIC means the least concentration at which growth counts as inhibited. A high value points to weaker potency.

In brackets after ≈: the same amount, converted by molar mass.

Results on 5 compounds are retold here after ChEMBL document CHEMBL4219129, “Design, synthesis and biological evaluation of spiropyrimidinetriones oxazolidinone derivatives as antibacterial agents” (2018).

Common to all, as to type: functional
Experiment [1] has as its system Staphylococcus aureus. The experiment is described as follows: Antibacterial activity against linezolid-resistant Staphylococcus aureus O-128.
Experiment [2] relates to Staphylococcus aureus. The experiment is described as follows: Antibacterial activity against […] Staphylococcus aureus ATCC 13709 SMITH.
For experiment [3], the system named is Staphylococcus epidermidis. The experiment is described as follows: Antibacterial activity against Staphylococcus epidermidis ATCC 12228.
For experiment [4], the system named is Staphylococcus aureus. The experiment is described as follows: Antibacterial activity against methicillin-resistant Staphylococcus aureus USA300 BAA-1556.
Experiment [5] concerns Staphylococcus epidermidis. Description: Antibacterial activity against linezolid-resistant Staphylococcus epidermidis 1089191.
In experiment [6] the test system is Escherichia coli. The experiment is described as follows: Antibacterial activity against TolC-deficient Escherichia coli.
The subject of experiment [7] is Staphylococcus aureus. Description: Antibacterial activity against Staphylococcus aureus Mu50 ATCC 700699.
Experiment [8] concerns Staphylococcus aureus. Description: Antibacterial activity against methicillin-resistant Staphylococcus aureus 562.
For experiment [9], the system named is Staphylococcus aureus. Description: Antibacterial activity against methicillin-resistant Staphylococcus aureus 1201984.
The subject of experiment [10] is Escherichia coli. The experiment is described as follows: Antibacterial activity against Escherichia coli MG1655. Particulars: K-12 substr. MG1655.
The subject of experiment [11] is Staphylococcus aureus. The experiment is described as follows: Antibacterial activity against PVL positive Staphylococcus aureus.
In experiment [12] the test system is Staphylococcus epidermidis. Description: Antibacterial activity against methicillin-resistant Staphylococcus epidermidis ATCC 35984.
Experiment [13] relates to Staphylococcus aureus. The experiment is described as follows: Antibacterial activity against Staphylococcus aureus FDA 209P.
The subject of experiment [14] is Staphylococcus epidermidis. The experiment is described as follows: Antibacterial activity against linezolid-resistant Staphylococcus epidermidis 1117174.
The subject of experiment [15] is Staphylococcus aureus. Description: Antibacterial activity against methicillin-resistant Staphylococcus aureus DB-00026.
Experiment [16] concerns Staphylococcus aureus. The experiment is described as follows: Antibacterial activity against Staphylococcus aureus ATCC 29213.
Experiment [17] relates to Enterococcus faecium. The experiment is described as follows: Antibacterial activity against Enterococcus faecium 45/146.
Experiment [18] relates to Enterococcus faecium. Description: Antibacterial activity against Enterococcus faecium NLNZ 572.
For experiment [19], the system named is Enterococcus faecium. The experiment is described as follows: Antibacterial activity against vancomycin-resistant Enterococcus faecium 31/132.
In experiment [20] the test system is Enterococcus faecium. The experiment is described as follows: Antibacterial activity against linezolid-resistant Enterococcus faecium 303.
Experiment [21] concerns Enterococcus faecium. The experiment is described as follows: Antibacterial activity against vancomycin-resistant Enterococcus faecium 134.
Experiment [22] concerns Enterococcus faecalis. The experiment is described as follows: Antibacterial activity against linezolid-resistant Enterococcus faecalis ATCC 29212.
Experiment [23] relates to Enterococcus faecalis. The experiment is described as follows: Antibacterial activity against Enterococcus faecalis ATCC 19434.
Experiment [24] deals with Enterococcus faecalis. Description: Antibacterial activity against Enterococcus faecalis ATCC 51299.
For experiment [25], the system named is Enterococcus faecium. Description: Antibacterial activity against vancomycin-resistant Enterococcus faecium R1.
Experiment [26] deals with Enterococcus faecium. Description: Antibacterial activity against vancomycin-resistant Enterococcus faecium 03080 DS.
The test system of experiment [27] is Enterococcus faecium. The experiment is described as follows: Antibacterial activity against Enterococcus faecium ATCC 35667.
In experiment [28] the test system is Enterococcus faecalis. The experiment is described as follows: Antibacterial activity against Enterococcus faecalis ATCC 29212.
In experiment [29] the test system is Enterococcus faecium. The experiment is described as follows: Antibacterial activity against Enterococcus faecium 575.
In experiment [30] the test system is Enterococcus faecium. The experiment is described as follows: Antibacterial activity against vancomycin-resistant Enterococcus faecium 6A.
The subject of experiment [31] is Enterococcus faecium. The experiment is described as follows: Antibacterial activity against vancomycin-resistant Enterococcus faecium 32/133.
The subject of experiment [32] is Enterococcus faecium. The experiment is described as follows: Antibacterial activity against Enterococcus faecium ATCC 19434.

On to `COC(=O)C1(C(=O)OC)Cc2cc(-c3ccc(N4C[C@H](CO)OC4=O)cc3F)ccc2N2CCOCC21` (stereo partly specified), for which the MIC in the experiment on Staphylococcus aureus [1] is more than 32 µg/mL; with Staphylococcus aureus [2], more than 32 µg/mL; in experiment [3], 8 µg/mL (≈ 15.5 µM); with Staphylococcus aureus [4] it was 16 µg/mL (≈ 31.1 µM); in [5] it was more than 32 µg/mL; in the experiment with Escherichia coli [6], 16 µg/mL (≈ 31.1 µM). Moreover, the MIC against Staphylococcus aureus [7] is 16 µg/mL (≈ 31.1 µM); against Staphylococcus aureus [8], 8 µg/mL (≈ 15.5 µM); in the experiment with Staphylococcus aureus [9] it was 8 µg/mL (≈ 15.5 µM); in the experiment on Escherichia coli [10], more than 32 µg/mL; in the experiment with Staphylococcus aureus [11] it was 8 µg/mL (≈ 15.5 µM); in experiment [12], 8 µg/mL (≈ 15.5 µM). Further, the MIC was 16 µg/mL (≈ 31.1 µM) in the experiment on Staphylococcus aureus [13], more than 32 µg/mL in experiment [14], 16 µg/mL (≈ 31.1 µM) against Staphylococcus aureus [15] and 16 µg/mL (≈ 31.1 µM) against Staphylococcus aureus [16].
Consider `CC(=O)NC[C@H]1CN(c2ccc(-c3ccc4c(c3)CC3(C(=O)NC(=O)NC3=O)C3CCCCN43)c(F)c2)C(=O)O1` (stereo partly specified), for which the MIC is 2 µg/mL (≈ 3.64 µM) against Enterococcus faecium [17]; 4 µg/mL (≈ 7.28 µM) against Enterococcus faecium [18]; 8 µg/mL (≈ 14.6 µM) against Staphylococcus aureus [1]; 16 µg/mL (≈ 29.1 µM) against Staphylococcus aureus [2]; 2 µg/mL (≈ 3.64 µM) in the experiment on Enterococcus faecium [19]; 16 µg/mL (≈ 29.1 µM) in the experiment on Enterococcus faecium [20]. Further, the minimum inhibitory concentration (MIC) was 4 µg/mL (≈ 7.28 µM) in the experiment with Enterococcus faecium [21]; 4 µg/mL (≈ 7.28 µM) in the experiment on Enterococcus faecalis [22]; 2 µg/mL (≈ 3.64 µM) in the experiment on Enterococcus faecalis [23]; 2 µg/mL (≈ 3.64 µM) in experiment [3]; 2 µg/mL (≈ 3.64 µM) in the experiment on Staphylococcus aureus [4]; more than 32 µg/mL in [5]. In addition, the MIC against Escherichia coli [6] was 4 µg/mL (≈ 7.28 µM); against Staphylococcus aureus [7], not above 1 µg/mL; against Staphylococcus aureus [8] it was not above 1 µg/mL; with Staphylococcus aureus [9], 2 µg/mL (≈ 3.64 µM); against Escherichia coli [10] it was more than 32 µg/mL; in the experiment with Staphylococcus aureus [11], 4 µg/mL (≈ 7.28 µM). In addition, the MIC against Enterococcus faecalis [24] is 1 µg/mL (≈ 1.82 µM); in experiment [12], not above 1 µg/mL; against Staphylococcus aureus [13], 2 µg/mL (≈ 3.64 µM); in [14], more than 32 µg/mL; against Staphylococcus aureus [15], 2 µg/mL (≈ 3.64 µM); in the experiment with Enterococcus faecium [25], 1 µg/mL (≈ 1.82 µM). The MIC amounted to 1 µg/mL (≈ 1.82 µM) with Enterococcus faecium [26]; 1 µg/mL (≈ 1.82 µM) against Enterococcus faecium [27]; 2 µg/mL (≈ 3.64 µM) with Enterococcus faecalis [28]; 2 µg/mL (≈ 3.64 µM) in the experiment with Staphylococcus aureus [16]; 2 µg/mL (≈ 3.64 µM) in the experiment with Enterococcus faecium [29]; 1 µg/mL (≈ 1.82 µM) against Enterococcus faecium [30]. The results for the MIC in the experiment with Enterococcus faecium [31] and in the experiment on Enterococcus faecium [32] were 4 µg/mL (≈ 7.28 µM) and 2 µg/mL (≈ 3.64 µM), respectively.
For the compound `CS(=O)(=O)NC[C@H]1CN(c2ccc(-c3ccc4c(c3)CC3(C(=O)NC(=O)NC3=O)C3CCCN43)c(F)c2)C(=O)O1` (stereo partly specified), the MIC in the experiment with Staphylococcus aureus [1] is 32 µg/mL (≈ 56 µM); against Staphylococcus aureus [2] it was more than 32 µg/mL; in [3] it was 8 µg/mL (≈ 14 µM); in the experiment with Staphylococcus aureus [4], 16 µg/mL (≈ 28 µM); in experiment [5], more than 32 µg/mL; against Escherichia coli [6], 16 µg/mL (≈ 28 µM). Further, the MIC is 8 µg/mL (≈ 14 µM) in the experiment on Staphylococcus aureus [7]; 8 µg/mL (≈ 14 µM) in the experiment on Staphylococcus aureus [8]; 8 µg/mL (≈ 14 µM) with Staphylococcus aureus [9]; more than 32 µg/mL in the experiment on Escherichia coli [10]; 8 µg/mL (≈ 14 µM) with Staphylococcus aureus [11]; 4 µg/mL (≈ 7 µM) in experiment [12]. Also, the minimal inhibitory concentration (MIC) against Staphylococcus aureus [13] was 16 µg/mL (≈ 28 µM); in [14], 32 µg/mL (≈ 56 µM); against Staphylococcus aureus [15], 16 µg/mL (≈ 28 µM); against Staphylococcus aureus [16], 16 µg/mL (≈ 28 µM).
With `O=C1NC(=O)C2(Cc3cc(-c4ccc(N5C[C@H](CO)OC5=O)cc4F)ccc3N3CCOCC32)C(=O)N1` (stereo partly specified), the MIC against Staphylococcus aureus [1] is 32 µg/mL (≈ 62.7 µM); against Staphylococcus aureus [2], 32 µg/mL (≈ 62.7 µM); in [3], 4 µg/mL (≈ 7.84 µM); with Staphylococcus aureus [4] it was 8 µg/mL (≈ 15.7 µM); in experiment [5], more than 32 µg/mL; in the experiment with Escherichia coli [6] it was 4 µg/mL (≈ 7.84 µM). The MIC in the experiment on Staphylococcus aureus [7] is 4 µg/mL (≈ 7.84 µM); against Staphylococcus aureus [8], 4 µg/mL (≈ 7.84 µM); in the experiment with Staphylococcus aureus [9] it was 16 µg/mL (≈ 31.3 µM); against Escherichia coli [10] it was more than 32 µg/mL; against Staphylococcus aureus [11], 8 µg/mL (≈ 15.7 µM); in experiment [12] it was 2 µg/mL (≈ 3.92 µM). Also, the minimum inhibitory concentration (MIC) against Staphylococcus aureus [13] was found to be 8 µg/mL (≈ 15.7 µM); in [14], 32 µg/mL (≈ 62.7 µM); against Staphylococcus aureus [15], 8 µg/mL (≈ 15.7 µM); in the experiment with Staphylococcus aureus [16], 8 µg/mL (≈ 15.7 µM).
Turning to `O=C1NC(=O)C2(Cc3cc(-c4ccc(N5C[C@H](CO)OC5=O)cc4F)ccc3N3CCCC32)C(=O)N1` (stereo partly specified), the MIC is 32 µg/mL (≈ 64.7 µM) in the experiment with Staphylococcus aureus [1]; 32 µg/mL (≈ 64.7 µM) against Staphylococcus aureus [2]; 2 µg/mL (≈ 4.04 µM) in [3]; 8 µg/mL (≈ 16.2 µM) against Staphylococcus aureus [4]; more than 32 µg/mL in experiment [5]; 4 µg/mL (≈ 8.09 µM) against Escherichia coli [6]. Moreover, the MIC is 2 µg/mL (≈ 4.04 µM) in the experiment with Staphylococcus aureus [7]; 2 µg/mL (≈ 4.04 µM) in the experiment on Staphylococcus aureus [8]; 4 µg/mL (≈ 8.09 µM) against Staphylococcus aureus [9]; more than 32 µg/mL in the experiment with Escherichia coli [10]; 4 µg/mL (≈ 8.09 µM) against Staphylococcus aureus [11]; not above 1 µg/mL in experiment [12]. The MIC with Staphylococcus aureus [13] stood at 4 µg/mL (≈ 8.09 µM); in experiment [14], 32 µg/mL (≈ 64.7 µM); against Staphylococcus aureus [15] it was 8 µg/mL (≈ 16.2 µM); in the experiment with Staphylococcus aureus [16], 4 µg/mL (≈ 8.09 µM).
